Results on 20 molecules are retold here after patent US11459315B2, “Modulators of methyl modifying enzymes, compositions and uses thereof” (Constellation Pharmaceuticals, Inc., priority 2017, dated 2022).

The target in one assay is PRC2 containing wt EZH2 (Homo sapiens (Human), UniProt Q15910). Nature of the assay: EZH2 biochemical assay (IC50), 3H-SAM incorporation into biotinylated H3 peptide. Particulars: 30 pM PRC2 containing wt EZH2, 3-5 h pre-incubation. In a few lines:
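The PRC2 pentamer with wt EZH2 (30 pM) was pre-incubated for 3-5 h with 450 nM SAM plus 450 nM ³H-SAM, 2 µM H3K27me3 activating peptide and compound (0.8% DMSO) in Tris at pH 8.5. Biotinylated H3K27me1 peptide was added and the reaction ran 18-22 h at RT. Incorporated ³H was captured on streptavidin plates, and IC50 was taken from a four-parameter fit.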

Assay [1] deals with H3K27me3 mark in HeLa cells (EZH2). Nature of the assay: H3K27me3 Alpha Hela Assay (AlphaLISA). In kind it is cell-based. To be noted: Homo sapiens, HeLa, 72 h, HeLa cells, 72 hrs; read-out: EZH2 Cell H3K27me3 Alpha HeLa (EC50 K27me3). The essentials:
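HeLa cells (1,000/well) treated with ten 3-fold compound doses for 72 h at 37 °C; lysates extracted and H3K27me3 detected by AlphaLISA with anti-K27me3 acceptor beads, biotinylated anti-H3 (3 nM) and streptavidin donor beads. EC50 from DMSO-normalized dose-response curves; duplicate plate assessed viability.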
For orientation: In Alpha technology, singlet oxygen from a donor bead excites a nearby acceptor bead.

pEC50, pIC50: −log10 of the molar value. Where two headings read alike, the source gives them in different places.

Chain of PRC2 containing wt EZH2 (Q15910 whole entry): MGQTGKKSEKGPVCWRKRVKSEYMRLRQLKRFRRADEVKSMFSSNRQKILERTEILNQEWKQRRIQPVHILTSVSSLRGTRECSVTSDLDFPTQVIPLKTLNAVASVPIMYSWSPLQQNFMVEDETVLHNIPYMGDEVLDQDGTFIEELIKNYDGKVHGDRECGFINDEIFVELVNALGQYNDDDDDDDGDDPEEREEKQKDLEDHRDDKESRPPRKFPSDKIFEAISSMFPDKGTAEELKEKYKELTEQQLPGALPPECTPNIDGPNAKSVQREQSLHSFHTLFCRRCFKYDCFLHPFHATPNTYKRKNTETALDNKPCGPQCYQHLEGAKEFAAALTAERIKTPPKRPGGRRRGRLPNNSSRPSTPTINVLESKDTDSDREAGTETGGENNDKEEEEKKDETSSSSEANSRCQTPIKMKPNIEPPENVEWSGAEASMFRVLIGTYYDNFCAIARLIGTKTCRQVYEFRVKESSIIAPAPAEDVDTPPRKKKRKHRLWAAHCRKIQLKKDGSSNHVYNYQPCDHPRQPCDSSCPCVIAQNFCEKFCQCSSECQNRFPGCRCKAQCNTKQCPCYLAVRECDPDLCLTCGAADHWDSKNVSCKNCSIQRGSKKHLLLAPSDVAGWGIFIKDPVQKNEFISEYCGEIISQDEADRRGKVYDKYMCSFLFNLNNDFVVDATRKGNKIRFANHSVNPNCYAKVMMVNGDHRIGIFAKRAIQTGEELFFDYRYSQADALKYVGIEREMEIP
Chain of PRC2 containing wt EZH2 (O75530 whole entry partner): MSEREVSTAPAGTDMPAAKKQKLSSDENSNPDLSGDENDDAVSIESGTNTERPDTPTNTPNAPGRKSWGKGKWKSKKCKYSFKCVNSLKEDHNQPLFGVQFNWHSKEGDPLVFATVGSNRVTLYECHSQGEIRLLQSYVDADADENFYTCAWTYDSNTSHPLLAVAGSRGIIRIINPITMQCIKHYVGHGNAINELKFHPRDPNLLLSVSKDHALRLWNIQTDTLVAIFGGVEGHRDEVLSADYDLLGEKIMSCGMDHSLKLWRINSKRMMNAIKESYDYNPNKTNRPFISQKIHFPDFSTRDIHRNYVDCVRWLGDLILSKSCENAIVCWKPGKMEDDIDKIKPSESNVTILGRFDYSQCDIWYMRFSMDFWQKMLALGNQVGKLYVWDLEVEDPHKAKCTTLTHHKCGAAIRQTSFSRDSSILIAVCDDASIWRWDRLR
Chain of PRC2 containing wt EZH2 (Q15022 whole entry partner): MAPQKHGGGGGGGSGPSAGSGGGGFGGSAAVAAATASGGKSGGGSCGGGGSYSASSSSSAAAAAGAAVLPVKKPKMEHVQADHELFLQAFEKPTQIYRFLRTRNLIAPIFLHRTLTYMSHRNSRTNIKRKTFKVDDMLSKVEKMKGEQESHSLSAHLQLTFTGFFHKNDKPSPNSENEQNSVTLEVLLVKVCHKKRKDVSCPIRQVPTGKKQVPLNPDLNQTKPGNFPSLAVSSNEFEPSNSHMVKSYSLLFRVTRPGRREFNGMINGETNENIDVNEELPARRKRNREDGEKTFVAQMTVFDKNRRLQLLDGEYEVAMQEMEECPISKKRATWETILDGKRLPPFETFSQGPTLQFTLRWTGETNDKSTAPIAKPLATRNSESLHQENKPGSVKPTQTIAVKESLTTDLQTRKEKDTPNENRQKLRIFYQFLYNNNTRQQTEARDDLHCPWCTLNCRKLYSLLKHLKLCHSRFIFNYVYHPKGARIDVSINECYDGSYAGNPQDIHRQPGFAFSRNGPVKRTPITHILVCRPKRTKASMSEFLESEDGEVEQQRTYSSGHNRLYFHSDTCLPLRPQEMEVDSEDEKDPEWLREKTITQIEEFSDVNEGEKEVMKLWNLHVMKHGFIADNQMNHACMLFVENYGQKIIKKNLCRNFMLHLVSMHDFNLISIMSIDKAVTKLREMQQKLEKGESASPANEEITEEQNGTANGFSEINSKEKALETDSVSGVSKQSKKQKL
Chain of PRC2 containing wt EZH2 (Q09028 whole entry partner): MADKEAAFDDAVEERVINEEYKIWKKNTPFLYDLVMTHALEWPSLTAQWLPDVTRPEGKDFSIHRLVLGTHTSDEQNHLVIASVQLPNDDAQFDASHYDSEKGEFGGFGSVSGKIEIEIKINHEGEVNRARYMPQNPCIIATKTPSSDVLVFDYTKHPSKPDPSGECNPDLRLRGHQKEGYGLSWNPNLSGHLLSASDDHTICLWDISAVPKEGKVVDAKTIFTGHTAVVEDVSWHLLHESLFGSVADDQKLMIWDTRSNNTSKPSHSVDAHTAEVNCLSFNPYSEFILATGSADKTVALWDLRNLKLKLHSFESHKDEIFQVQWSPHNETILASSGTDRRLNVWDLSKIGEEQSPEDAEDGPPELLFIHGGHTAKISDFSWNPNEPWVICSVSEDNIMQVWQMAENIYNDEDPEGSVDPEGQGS
Chain of PRC2 containing wt EZH2 (Q6ZN18 whole entry partner): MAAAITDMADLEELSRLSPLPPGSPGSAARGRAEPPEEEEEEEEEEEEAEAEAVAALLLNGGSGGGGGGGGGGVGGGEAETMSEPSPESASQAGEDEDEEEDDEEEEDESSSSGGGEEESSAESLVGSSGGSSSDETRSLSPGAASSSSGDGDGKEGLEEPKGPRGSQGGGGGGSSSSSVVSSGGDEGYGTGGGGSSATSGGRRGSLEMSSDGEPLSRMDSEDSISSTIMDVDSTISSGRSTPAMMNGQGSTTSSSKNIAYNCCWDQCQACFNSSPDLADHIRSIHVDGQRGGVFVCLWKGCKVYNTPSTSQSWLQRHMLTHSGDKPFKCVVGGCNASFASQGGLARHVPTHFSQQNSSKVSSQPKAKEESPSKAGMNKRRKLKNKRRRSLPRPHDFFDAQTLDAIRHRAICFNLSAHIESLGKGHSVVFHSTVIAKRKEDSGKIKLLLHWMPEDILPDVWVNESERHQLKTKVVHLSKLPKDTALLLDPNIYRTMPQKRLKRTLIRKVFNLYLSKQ

By pIC50 is commonly meant the negative decadic logarithm of the IC50, by convention in mol/L. Usually pEC50 stands for the EC50 on a negative log10 scale, so that one unit is a factor of ten. `CSc1cc(C)[nH]c(=O)c1CNC(=O)c1c(C)n([C@H](C)C2CN(CC(F)(F)F)C2)c2ccccc12` [Example 54, (R)-2-methyl-N-((6-methyl-4-(methylthio)-2-oxo-1,2-dihydropyridin-3-yl)methyl)-1-(1-(1-(2,2,2-trifluoroethyl)azetidin-3-yl)ethyl)-1H-indole-3-carboxamide]: the pIC50 on PRC2 containing wt EZH2 (EZH2 (IC50)) was 8.30 to 9.30. In addition, in assay [1], the negative-log EC50 (pEC50) is 7.00 to 8.00.

In turn, `CSc1cc(C)[nH]c(=O)c1CNC(=O)c1c(C)n([C@@H](C)C2CN(CC(F)(F)F)C2)c2ccccc12` [Example 55, (S)-2-methyl-N-((6-methyl-4-(methylthio)-2-oxo-1,2-dihydropyridin-3-yl)methyl)-1-(1-(1-(2,2,2-trifluoroethyl)azetidin-3-yl)ethyl)-1H-indole-3-carboxamide] showed a pIC50 against PRC2 containing wt EZH2 (EZH2 (IC50)) of 8.30 to 9.30. For the same molecule, the pEC50 in assay [1] was 7.00 to 8.00.

Regarding `CSc1cc(C)[nH]c(=O)c1CNC(=O)c1c(C)n([C@H](C)[C@H]2CCN(C3CC3)C[C@H]2F)c2ccccc12` [Example 56, 1-((R)-1-((3S,4R)-1-cyclopropyl-3-fluoropiperidin-4-yl)ethyl)-2-methyl-N-((6-methyl-4-(methylthio)-2-oxo-1,2-dihydropyridin-3-yl)methyl)-1H-indole-3-carboxamide], the pIC50 at PRC2 containing wt EZH2 (EZH2 (IC50)) is over 9.30. Also, in assay [1], the pEC50 is over 8.00.

In the case of `CSc1cc(C)[nH]c(=O)c1CNC(=O)c1c(C)n([C@H](C)C2CCN(C3CC3)CC2)c2cc(F)ccc12` [Example 57, (R)-1-(1-(1-cyclopropylpiperidin-4-yl)ethyl)-6-fluoro-2-methyl-N-((6-methyl-4-(methylthio)-2-oxo-1,2-dihydropyridin-3-yl)methyl)-1H-indole-3-carboxamide], at PRC2 containing wt EZH2 (EZH2 (IC50)), the pIC50 is over 9.30. For the same molecule, the pEC50 in assay [1] was over 8.00.

`CSc1cc(C)[nH]c(=O)c1CNC(=O)c1c(C)n([C@H](C)C2CCN(C3CC3)CC2)c2ncc(F)cc12` [Example 58, (R)-1-(1-(1-cyclopropylpiperidin-4-yl)ethyl)-5-fluoro-2-methyl-N-((6-methyl-4-(methylthio)-2-oxo-1,2-dihydropyridin-3-yl)methyl)-1H-pyrrolo[2,3-b]pyridine-3-carboxamide]: at PRC2 containing wt EZH2 (EZH2 (IC50)), the pIC50 was over 9.30. In addition, in assay [1], the pEC50 was over 8.00.

At PRC2 containing wt EZH2 (EZH2 (IC50)), `CSc1cc(C)[nH]c(=O)c1CNC(=O)c1c(C)n([C@H](C)C2CCN(CC(F)F)CC2)c2ncccc12` [Example 59, (R)-1-(1-(1-(2,2-difluoroethyl)piperidin-4-yl)ethyl)-2-methyl-N-((6-methyl-4-(methylthio)-2-oxo-1,2-dihydropyridin-3-yl)methyl)-1H-pyrrolo[2,3-b]pyridine-3-carboxamide] had a pIC50 of over 9.30. The pEC50 in assay [1] is over 8.00.

For `CSc1cc(C)[nH]c(=O)c1CNC(=O)c1c(C)n([C@H](C)C2CCC(NC(C)(C)C)CC2)c2ccccc12` (stereo partly drawn) [Example 61, (R)-1-(1-(4-(tert-butylamino)cyclohexyl)ethyl)-2-methyl-N-((6-methyl-4-(methylthio)-2-oxo-1,2-dihydropyridin-3-yl)methyl)-1H-indole-3-carboxamide], the pIC50 at PRC2 containing wt EZH2 (read-out: EZH2 (IC50)) is over 9.30. Besides, in assay [1], the pEC50 is 7.00 to 8.00.

Take `CSc1cc(C)[nH]c(=O)c1CNC(=O)c1c(C)n([C@H](C)C2CCC(NC3COC3)CC2)c2ncncc12` (stereo partly drawn) [Example 63, 6-methyl-N-((6-methyl-4-(methylthio)-2-oxo-1,2-dihydropyridin-3-yl)methyl)-7-((R)-1-(4-(oxetan-3-ylamino)cyclohexyl)ethyl)-7H-pyrrolo[2,3-d]pyrimidine-5-carboxamide]: the pIC50 on PRC2 containing wt EZH2 (read-out: EZH2 (IC50)) is over 9.30. Further, in assay [1], the pEC50 is 7.00 to 8.00.

As for `CSc1cc(C)[nH]c(=O)c1CNC(=O)c1c(C)n([C@H](C)C2CCC(N3CC(F)C3)CC2)c2ncccc12` (stereo partly drawn) [Example 65, 1-((R)-1-(4-(3-fluoroazetidin-1-yl)cyclohexyl)ethyl)-2-methyl-N-((6-methyl-4-(methylthio)-2-oxo-1,2-dihydropyridin-3-yl)methyl)-1H-pyrrolo[2,3-b]pyridine-3-carboxamide], the pIC50 against PRC2 containing wt EZH2 (EZH2 (IC50)) was over 9.30. Moreover, the pEC50 in assay [1] is over 8.00.

As to `CSc1cc(C)[nH]c(=O)c1CNC(=O)c1c(C)n([C@H](C)C2CCN(C3CC(F)C3)CC2)c2ncccc12` (stereo partly drawn) [Example 66, (R)-1-(1-(1-(3-fluorocyclobutyl)piperidin-4-yl)ethyl)-2-methyl-N-((6-methyl-4-(methylthio)-2-oxo-1,2-dihydropyridin-3-yl)methyl)-1H-pyrrolo[2,3-b]pyridine-3-carboxamide], the pIC50 against PRC2 containing wt EZH2 (EZH2 (IC50)) is over 9.30. For the same molecule, the pEC50 in assay [1] was 7.00 to 8.00.

As for `CSc1cc(C)[nH]c(=O)c1CNC(=O)c1c(C)n([C@H](C)C2CCC(N3CC(F)C3)CC2)c2ncncc12` (stereo partly drawn) [Example 68, 7-((R)-1-(4-(3-fluoroazetidin-1-yl)cyclohexyl)ethyl)-6-methyl-N-((6-methyl-4-(methylthio)-2-oxo-1,2-dihydropyridin-3-yl)methyl)-7H-pyrrolo[2,3-d]pyrimidine-5-carboxamide], the pIC50 on PRC2 containing wt EZH2 (EZH2 (IC50)) was over 9.30. For the same molecule, the pEC50 in assay [1] was over 8.00.

Consider `CSc1cc(C)[nH]c(=O)c1CNC(=O)c1c(C)n([C@H](C)C2CCN(C3CC3)CC2)c2ncc(Cl)cc12` [Example 69, (R)-5-chloro-1-(1-(1-cyclopropylpiperidin-4-yl)ethyl)-2-methyl-N-((6-methyl-4-(methylthio)-2-oxo-1,2-dihydropyridin-3-yl)methyl)-1H-pyrrolo[2,3-b]pyridine-3-carboxamide], for which, on PRC2 containing wt EZH2 (EZH2 (IC50)), the pIC50 was over 9.30. In addition, the pEC50 in assay [1] is over 8.00.

With `CSc1cc(C)[nH]c(=O)c1CNC(=O)c1c(C)n([C@H](C)[C@H]2CCN(C)[C@H](C(F)(F)F)C2)c2ccccc12` [Example 71, 2-methyl-1-((R)-1-((2S,4S)-1-methyl-2-(trifluoromethyl)piperidin-4-yl)ethyl)-N-((6-methyl-4-(methylthio)-2-oxo-1,2-dihydropyridin-3-yl)methyl)-1H-indole-3-carboxamide], the pIC50 against PRC2 containing wt EZH2 (EZH2 (IC50)) is over 9.30. Besides, the pEC50 in assay [1] was over 8.00.

Take `CSc1cc(C)[nH]c(=O)c1CNC(=O)c1c(C)n([C@H](C)C2CCC(N3CCCC3=O)CC2)c2ccccc12` (stereo partly drawn) [Example 72, 2-methyl-N-((6-methyl-4-(methylthio)-2-oxo-1,2-dihydropyridin-3-yl)methyl)-1-((R)-1-(4-(2-oxopyrrolidin-1-yl)cyclohexyl)ethyl)-1H-indole-3-carboxamide]: at PRC2 containing wt EZH2 (read-out: EZH2 (IC50)), the pIC50 is over 9.30. The pEC50 in assay [1] is 7.00 to 8.00.

`CSc1cc(C)[nH]c(=O)c1CNC(=O)c1c(C)n([C@H](C)C2CCN(CC(F)(F)F)CC2)c2ncncc12` [Example 73, (R)-6-methyl-N-((6-methyl-4-(methylthio)-2-oxo-1,2-dihydropyridin-3-yl)methyl)-7-(1-(1-(2,2,2-trifluoroethyl)piperidin-4-yl)ethyl)-7H-pyrrolo[2,3-d]pyrimidine-5-carboxamide]: the pIC50 at PRC2 containing wt EZH2 (EZH2 (IC50)) was over 9.30. Besides, the pEC50 in assay [1] was over 8.00.

Regarding `CSc1cc(C)[nH]c(=O)c1CNC(=O)c1c(C)n([C@H](C)C2CCC(N3CCOC3=O)CC2)c2ccccc12` (stereo partly drawn) [Example 74, 2-methyl-N-((6-methyl-4-(methylthio)-2-oxo-1,2-dihydropyridin-3-yl)methyl)-1-((R)-1-(4-(2-oxooxazolidin-3-yl)cyclohexyl)ethyl)-1H-indole-3-carboxamide], the pIC50 on PRC2 containing wt EZH2 (read-out: EZH2 (IC50)) is over 9.30. Also, the pEC50 in assay [1] is 7.00 to 8.00.

Regarding `COC1CN(C2CCC([C@@H](C)n3c(C)c(C(=O)NCc4c(SC)cc(C)[nH]c4=O)c4cncnc43)CC2)C1` (stereo partly drawn) [Example 77, 7-((R)-1-(4-(3-methoxyazetidin-1-yl)cyclohexyl)ethyl)-6-methyl-N-((6-methyl-4-(methylthio)-2-oxo-1,2-dihydropyridin-3-yl)methyl)-7H-pyrrolo[2,3-d]pyrimidine-5-carboxamide], the pIC50 at PRC2 containing wt EZH2 (EZH2 (IC50)) was over 9.30. Besides, in assay [1], the pEC50 was 7.00 to 8.00.

In turn, `CSc1cc(C)[nH]c(=O)c1CNC(=O)c1c(C)n([C@H](C)C2CCC(N3CC(C)(F)C3)CC2)c2ncccc12` (stereo partly drawn) [Example 80, 1-((R)-1-(4-(3-fluoro-3-methylazetidin-1-yl)cyclohexyl)ethyl)-2-methyl-N-((6-methyl-4-(methylthio)-2-oxo-1,2-dihydropyridin-3-yl)methyl)-1H-pyrrolo[2,3-b]pyridine-3-carboxamide] showed a pIC50 at PRC2 containing wt EZH2 (EZH2 (IC50)) of over 9.30. Besides, the pEC50 in assay [1] was 7.00 to 8.00.

Consider `CSc1cc(C)[nH]c(=O)c1CNC(=O)c1c(C)n([C@H](C)C2CCN(C3CC(F)(F)C3)CC2)c2ccccc12` [Example 81, (R)-1-(1-(1-(3,3-difluorocyclobutyl)piperidin-4-yl)ethyl)-2-methyl-N-((6-methyl-4-(methylthio)-2-oxo-1,2-dihydropyridin-3-yl)methyl)-1H-indole-3-carboxamide], for which, on PRC2 containing wt EZH2 (EZH2 (IC50)), the pIC50 is over 9.30. For the same molecule, the pEC50 in assay [1] is 7.00 to 8.00.

`CSc1cc(C)[nH]c(=O)c1CNC(=O)c1c(C)n([C@H](C)C2CCC(N3CC(F)C3)CC2)c2c(F)cccc12` (stereo partly drawn) [Example 82, 7-fluoro-1-((R)-1-(4-(3-fluoroazetidin-1-yl)cyclohexyl)ethyl)-2-methyl-N-((6-methyl-4-(methylthio)-2-oxo-1,2-dihydropyridin-3-yl)methyl)-1H-indole-3-carboxamide] showed a pIC50 on PRC2 containing wt EZH2 (EZH2 (IC50)) of over 9.30. For the same molecule, the pEC50 in assay [1] is over 8.00.
